Here are results for 17 compounds from patent US20230167121A1, “SUBSTITUTED {1,2,4,} TRIAZOLO{1,5-A} PYRIMIDINE COMPOUNDS AND USE IN STABILIZING MICROTUBULES” (THE TRUSTEES OF THE UNIVERSITY OF PENNSYLVANIA, priority 2020, published 2023).

Series [1] is described as follows: Plasma and brain compound determinations (LC-MS/MS). The class given is in vivo. The following applies: CD1 mice, 2.5 mg/kg each, one hour after dosing; for concentration at 1 h / Kp at 1 h: CD1, mouse, 2.5 mg/kg. Here is the method: CD1 mice (n=3) were dosed concurrently with CNDR-51990 and CNDR-51993 (representing a 1:1 mixture of two diastereoisomers, 52017 (67) and 52016 (68)) at 2.5 mg/kg each). One hour after dosing, mice were euthanized and blood collected, followed by perfusion with saline. Mouse brains were homogenized in 10 mM ammonium acetate, pH 5.7 (1:2; w/v) using a handheld sonic homogenizer. Mouse plasma was obtained from blood that was collected into a 1.5 ml tube containing 0.5M EDTA solution and which was centrifuged for 10 minutes at 4500 g at 4° C. Aliquots (50 μl) of brain homogenates or plasma were mixed with 0.2 ml of acetonitrile, centrifuged at 15,000×g, and the resulting supernatant was used for subsequent LC-MS/MS analysis. The LC-MS/MS analysis was conducted by Inotiv, Inc., utilizing methods essentially as previously described (Lou et al., J. Med. Chem. 57:6116-27, 2014).

Series [2] concerns total α-tubulin. The series is described as follows: cell-based assay of MT-stabilization: total α-tubulin in QBI293 cell lysates by ELISA. Particulars: QB1293 cells; for fold induction at 1 µM / fold induction at 10 µM: QBI293, 4 h. The procedure: All test compounds were evaluated in a previously described cell-based assay of MT-stabilization (see Kovalevich, J., et al. (2016) Characterization of Brain-Penetrant Pyrimidine-Containing Molecules with Differential Microtubule-Stabilizing Activities Developed as Potential Therapeutic Agents for Alzheimer's Disease and Related Tauopathies. J Pharmacol Exp Ther 357, 432-450, incorporated herein by reference), in which compound-dependent changes in tubulin polymerization and total tubulin levels were determined after 4 h of incubation of QBI293 cells with 1 and 10 μM compound via quantification of acetylated α-tubulin and total tubulin in cell lysates by ELISA.
Novel C6 nitrile- and alkyne-substituted triazolopyrimidine examples that have improved in vitro activity relative to previously described examples, with the general structure depicted in Formula I. The activity of the novel C6-nitrile substituted compounds were tested in a previously described cellular assay of MT-stabilization (Kovalevich, J., et al. (2016)). As summarized in Table 2. below, eighteen examples were synthesized and tested. In all cases, these compounds were confirmed to be active Class I triazolopyrimidines. […] Table 2 provides fold-changes in acetylated α-tubulin and total α-tubulin levels in QB1293 cells after 4 h incubation with test compounds at either 1 or 10 μM. Data are expressed as the fold-change relative to vehicle-treated cells. *p<0.05 and **p<0.01 by one-way ANOVA.
Compounds produced according to the preceding synthetic schemes were for microtubule stabilization. Fold-changes in acetylated α-tubulin (AcTub) and α-tubulin (α-Tub) levels in QB1293 cells after 4 h incubation with test compounds at either 1 or 10 μM. Reported values for AcTub and α-Tub represent the fold-change over control (DMSO)-treated cells (*p<0.05 and **p<0.01 by one-way ANOVA); numbers in parentheses represent the fold-change of AcTub over positive control-treated cells (i.e., 100 nM of cevipabulin). Changes of +/−15% of control are deemed to be within the day-to-day assay variability and non-significant.
A general note: An ELISA detects its analyte on a solid surface through an enzyme-linked reagent.

The mark [3] stands for this setting: dosed concurrently, individual animals 1-3.
[4] abbreviates: 4 h incubation, 1 μM compound, relative to vehicle-treated cells, read-out: α-Tub 1 μM (fold-change in total α-tubulin).
[5] abbreviates: 4 h incubation, 10 μM compound, relative to vehicle-treated cells, read-out: α-Tub 10 μM (fold-change in total α-tubulin).
Setting [6] is: 4 h incubation, 1 μM compound, relative to vehicle-treated cells.
[7] abbreviates: Table 4, 4 h, 1 μM, read-out: α-Tub l μM (fold-change over control (DMSO)-treated cells).
The mark [8] stands for this setting: Table 4, 4 h, 10 μM, read-out: α-Tub 10 μM (fold-change over control (DMSO)-treated cells).

Values joined by “and” are separate entries in the source; they are usually repeats but may differ in a detail not shown here. Equal entries are not always repeated. Structures can show the parent of a compound that is named as a salt. Where two headings read alike, the source gives them in different places.

Turning to `CC(C)[C@@H](C)Nc1c(-c2ccc(C#N)cc2F)c(Cl)nc2ncnn12` [CNDR-51993, (R)-4-(5-chloro-7-((3-methylbutan-2-yl)amino)-[1,2,4]triazolo[1,5-a]pyrimidin-6-yl)-3-fluorobenzonitrile], the concentration at 1 h was determined as 209 ng/g in series [1] (brain, dosed concurrently, individual animals 1-3, read-out: Brain Concentration); 225 ng/g in series [1] (brain, dosed concurrently, mean, n=3, read-out: Brain Concentration, Mean); 0.242 µg/mL in series [1] (plasma, dosed concurrently, individual animals 1-3, read-out: Plasma Concentration); 0.206 µg/mL in series [1] (plasma, dosed concurrently, mean, n=3, read-out: Plasma Concentration, Mean). In addition, the Kp at 1 h in series [1] (brain, individual animals 1-3, read-out: Brain/Plasma) was 0.86; in series [1] (brain, mean, n=3, read-out: Brain/Plasma, Mean), 1.09. In series [1] (setting [3]), the “Brain Concentration” value is 211 ng/g and 254 ng/g. Also, the “Plasma Concentration” value in series [1] (setting [3]) was 0.186 µg/mL and 0.19 µg/mL. For the same compound, the Brain/Plasma in series [1] (individual animals 1-3) was 1.13 and 1.34.
As to `C[C@H](Nc1c(-c2c(F)cc(C#N)cc2F)c(Cl)nc2ncnn12)C(F)(F)F` [Compound 19, (S)-4-(5-Chloro-7-((1,1,1-trifluoropropan-2-yl)amino)-[1,2,4]triazolo[1,5-a]pyrimidin-6-yl)-3,5-difluorobenzonitrile], the fold induction at 1 µM in series [2] (setting [4]) is 0.94 ± 0.02. Further, the fold induction at 10 µM in series [2] (setting [5]) came out at 0.95 ± 0.05.
On the same counts, the results for `C[C@H](Nc1c(-c2ccc(C#N)cc2F)c(Cl)nc2ncnn12)C(F)(F)F` [Compound 61, (S)-4-(5-Chloro-7-((1,1,1-trifluoropropan-2-yl)amino)-[1,2,4]triazolo[1,5-a]pyrimidin-6-yl)-3-fluorobenzonitrile] are 1 and 1.
In the same order, the values of `CC(C)[C@@H](Nc1c(-c2ccc(C#N)cc2F)c(Cl)nc2ncnn12)C(F)(F)F` [Compound 63, (R)-4-(5-chloro-7-((1,1,1-trifluoro-3-methylbutan-2-yl)amino)-[1,2,4]triazolo[1,5-a]pyrimidin-6-yl)-3-fluorobenzonitrile] are 0.99 and 0.98.
On the same counts, the results for `CC(C)[C@@H](C)Nc1c(-c2c(F)cc(C#N)cc2F)c(Cl)nc2ncnn12` [Compound 66, (R)-4-(5-chloro-7-((3-methylbutan-2-yl)amino)-[1,2,4]triazolo[1,5-a]pyrimidin-6-yl)-3,5-difluorobenzonitrile] are 0.93 and 0.94.
Take `CC(C)[C@@H](C)Nc1c(-c2ccc(C#N)cc2F)c(Cl)nc2ncnn12` [Compound 68, (R)-4-(5-chloro-7-((3-methylbutan-2-yl)amino)-[1,2,4]triazolo[1,5-a]pyrimidin-6-yl)-3-fluorobenzonitrile]: in series [2] (4 h incubation, 1 μM compound, relative to vehicle-treated cells, listed as 52016 (68)), the “α-Tub 1 μM (fold-change in total α-tubulin)” value was 0.95 +/− 0.02 fold-change. Moreover, the “α-Tub 10 μM (fold-change in total α-tubulin)” value in series [2] (4 h incubation, 10 μM compound, relative to vehicle-treated cells, listed as 52016 (68)) was 0.92 +/− 0.01 fold-change.
As for `N#Cc1cc(F)c(-c2c(Cl)nc3ncnn3c2N2CCCCCC2)c(F)c1` [Compound 75, 4-(7-(Azepan-1-yl)-5-chloro-[1,2,4]triazolo[1,5-a]pyrimidin-6-yl)-3,5-difluorobenzonitrile], the fold induction at 1 µM in series [2] (setting [4]) stood at 0.98 ± 0.03. Besides, the fold induction at 10 µM in series [2] (setting [5]) is 0.99.
Regarding `N#Cc1ccc(-c2c(Cl)nc3ncnn3c2N2CCCCCC2)c(F)c1` [Compound 76, 4-(7-(Azepan-1-yl)-5-chloro-[1,2,4]triazolo[1,5-a]pyrimidin-6-yl)-3-fluorobenzonitrile], the “α-Tub 1 μM (fold-change in total α-tubulin)” value in series [2] (setting [6]) is reported as 1.04 +/− 0.05 fold-change. In addition, the fold induction at 10 µM in series [2] (setting [5]) came out at 0.99.
In the same order, the values of `N#Cc1cc(F)c(-c2c(Cl)nc3ncnn3c2N2CCCCCCC2)c(F)c1` [Compound 77, 4-(7-(azocan-1-yl)-5-chloro-[1,2,4]triazolo[1,5-a]pyrimidin-6-yl)-3,5-difluorobenzonitrile] are 1.01 +/− 0.02 fold-change and 0.99.
Take `C#Cc1cc(F)c(-c2c(Cl)nc3ncnn3c2N[C@H](C)C(C)C)c(F)c1` [TAL-487, (R)-5-chloro-6-(4-ethynyl-2,6-difluorophenyl)-N-(3-methylbutan-2-yl)-[1,2,4]triazolo[1,5-a]pyrimidin-7-amine]: the fold induction at 1 µM in series [2] (setting [7]) stood at 0.98.
Turning to `CC(C)[C@@H](C)Nc1c(-c2c(F)cc(C#CCN(C)C)cc2F)c(Cl)nc2ncnn12` [TAL-546, (R)-5-chloro-6-(4-(3-(dimethylamino)prop-1-yn-1-yl)-2,6-difluorophenyl)-N-(3-methylbutan-2-yl)-[1,2,4]triazolo[1,5-a]pyrimidin-7-amine], the fold induction at 1 µM in series [2] (setting [7]) was determined as 0.98.
Consider `C[C@@H](Nc1c(-c2c(F)cc(C#CCCCO)cc2F)c(Cl)nc2ncnn12)C(C)(C)C` [TAL-601, (R)-5-(4-(5-chloro-7-((3,3-dimethylbutan-2-yl)amino)-[1,2,4]triazolo[1,5-a]pyrimidin-6-yl)-3,5-difluorophenyl)pent-4-yn-1-ol], for which, in series [2] (setting [7]), the fold induction at 1 µM is 1.18.
Consider `CNCC#Cc1cc(F)c(-c2c(Cl)nc3ncnn3c2N[C@H](C)C(C)C)c(F)c1` [TAL-637, (R)-5-chloro-6-(2,6-difluoro-4-(3-(methylamino)prop-1-yn-1-yl)phenyl)-N-(3-methylbutan-2-yl)-[1,2,4]triazolo[1,5-a]pyrimidin-7-amine hydrochloride], for which, in series [2] (setting [7]), the fold induction at 1 µM stood at 0.96. In addition, the fold induction at 10 µM in series [2] (setting [8]) stood at 0.96.
As to `CNCC#Cc1cc(F)c(-c2c(Cl)nc3ncnn3c2N[C@H](C)C(C)(C)C)c(F)c1` [TAL-638, (R)-5-chloro-6-(2,6-difluoro-4-(3-(methylamino)prop-1-yn-1-yl)phenyl)-N-(3,3-dimethylbutan-2-yl)-[1,2,4]triazolo[1,5-a]pyrimidin-7-amine hydrochloride], in series [2] (setting [7]), the fold induction at 1 µM worked out at 0.93. In addition, the fold induction at 10 µM in series [2] (setting [8]) is 1.
With `C[C@H](Nc1c(-c2c(F)cc(C#CCCO)cc2F)c(Cl)nc2ncnn12)C(F)(F)F` [TAL-641, (S)-4-(4-(5-chloro-7-((1,1,1-trifluoropropan-2-yl)amino)-[1,2,4]triazolo[1,5-a]pyrimidin-6-yl)-3,5-difluorophenyl)but-3-yn-1-ol], the fold induction at 1 µM in series [2] (setting [7]) was 0.98.
Turning to `C[C@H](Nc1c(-c2c(F)cc(C#CCCCO)cc2F)c(Cl)nc2ncnn12)C(F)(F)F` [TAL-642, (S)-5-(4-(5-chloro-7-((1,1,1-trifluoropropan-2-yl)amino)-[1,2,4]triazolo[1,5-a]pyrimidin-6-yl)-3,5-difluorophenyl)pent-4-yn-1-ol], in series [2] (setting [7]), the fold induction at 1 µM was determined as 0.93. For the same compound, in series [2] (setting [8]), the fold induction at 10 µM is 0.87.
On the same counts, the results for `C[C@@H](Nc1c(-c2c(F)cc(C#CCCN(C)C)cc2F)c(Cl)nc2ncnn12)C(C)(C)C` [TAL-664, (R)-5-chloro-6-(4-(4-(dimethylamino)but-1-yn-1-yl)-2,6-difluorophenyl)-N-(3,3-dimethylbutan-2-yl)-[1,2,4]triazolo[1,5-a]pyrimidin-7-amine] are 0.88 and 0.96.
